These results are taken from the supplement of paper PMC10307832.

In one assay the test system is EMC-BAC-2. Kind of assay: relative viability (nuclei count vs DMSO), 5 days (fraction); higher = more cells survive. The conditions noted are these: first compound 2.53 µM. In outline:
(§1)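 Lung cancer cell lines in 1536-well plates got either a single drug or a fixed anchor-drug dose together with five library-drug doses (not always all listed) in √10 steps, by pin tool, on the day after seeding. Nuclei were counted after 5 days, and relative viability is the treated-to-vehicle ratio of nuclei counts. Values are medians of duplicate plates.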
The compound `CCCCCCCCCCCC1=C(O)C(=O)C=C(O)C1=O` [Embelin] + Nc1nc2[nH]cc(CCc3ccc(C(=O)N[C@@H](CCC(=O)O)C(=O)O)cc3)c2c(=O)[nH]1 [Pemetrexed] (partner 0.2 µM) showed a relative viability of 0.399.

The assay is the same for the next values; noted with them: first compound 8 µM.
With `CCCCCCCCCCCC1=C(O)C(=O)C=C(O)C1=O` [Embelin] + N=C(N)NC(=N)NCCc1ccccc1 [Phenformin] (partner 250 µM), the relative viability worked out at 0.504.
The same measure, in the same setting: with `CCCCCCCCCCCC1=C(O)C(=O)C=C(O)C1=O` [Embelin] + CCNC(=O)c1noc(-c2cc(C(C)C)c(O)cc2O)c1-c1ccc(CN2CCOCC2)cc1 [Luminespib] (partner 0.01 µM) the figure was 1.29.
Same read-out and setting: then `CCCCCCCCCCCC1=C(O)C(=O)C=C(O)C1=O` [Embelin] + Cc1nc(Nc2ncc(C(=O)Nc3c(C)cccc3Cl)s2)cc(N2CCN(CCO)CC2)n1 [Dasatinib] (partner 0.075 µM), with 0.291; and `CCCCCCCCCCCC1=C(O)C(=O)C=C(O)C1=O` [Embelin] + COc1cccc2cc(-c3nc([C@H]4CC[C@H](C(=O)O)CC4)n4ncnc(N)c34)[nH]c12 [OSI-027] (partner 0.5 µM), with 0.353.
On the same count and under the same terms, with `CCCCCCCCCCCC1=C(O)C(=O)C=C(O)C1=O` [Embelin] + Nc1nc2[nH]cc(CCc3ccc(C(=O)N[C@@H](CCC(=O)O)C(=O)O)cc3)c2c(=O)[nH]1 [Pemetrexed] (partner 0.2 µM) the figure was 0.49.

Another assay concerns LCLC-97TM1. The assay is described as above. As to conditions: first compound 0.08 µM. In outline:
as §1
Turning to `CCCCCCCCCCCC1=C(O)C(=O)C=C(O)C1=O` [Embelin] + N=C(N)NC(=N)NCCc1ccccc1 [Phenformin] (partner 250 µM), the relative viability amounted to 0.452.
The same measure, in the same setting: with `CCCCCCCCCCCC1=C(O)C(=O)C=C(O)C1=O` [Embelin] + CCNC(=O)c1noc(-c2cc(C(C)C)c(O)cc2O)c1-c1ccc(CN2CCOCC2)cc1 [Luminespib] (partner 0.01 µM) the figure was 0.78; with `CCCCCCCCCCCC1=C(O)C(=O)C=C(O)C1=O` [Embelin] + Cc1nc(Nc2ncc(C(=O)Nc3c(C)cccc3Cl)s2)cc(N2CCN(CCO)CC2)n1 [Dasatinib] (partner 0.075 µM), 1.05; with `CCCCCCCCCCCC1=C(O)C(=O)C=C(O)C1=O` [Embelin] + COc1cccc2cc(-c3nc([C@H]4CC[C@H](C(=O)O)CC4)n4ncnc(N)c34)[nH]c12 [OSI-027] (partner 0.5 µM), 0.376.
On to `CCCCCCCCCCCC1=C(O)C(=O)C=C(O)C1=O` [Embelin] + Nc1nc2[nH]cc(CCc3ccc(C(=O)N[C@@H](CCC(=O)O)C(=O)O)cc3)c2c(=O)[nH]1 [Pemetrexed] (partner 0.2 µM), for which the relative viability worked out at 0.17.

The assay is the same for the next values; noted with them: first compound 0.8 µM.
`CCCCCCCCCCCC1=C(O)C(=O)C=C(O)C1=O` [Embelin] + N=C(N)NC(=N)NCCc1ccccc1 [Phenformin] (partner 250 µM) returned a relative viability of 0.432.
On to `CCCCCCCCCCCC1=C(O)C(=O)C=C(O)C1=O` [Embelin] + CCNC(=O)c1noc(-c2cc(C(C)C)c(O)cc2O)c1-c1ccc(CN2CCOCC2)cc1 [Luminespib] (partner 0.01 µM), for which the relative viability came out at 0.899.
The same measure, in the same setting: with `CCCCCCCCCCCC1=C(O)C(=O)C=C(O)C1=O` [Embelin] + Cc1nc(Nc2ncc(C(=O)Nc3c(C)cccc3Cl)s2)cc(N2CCN(CCO)CC2)n1 [Dasatinib] (partner 0.075 µM) the figure was 0.668; with `CCCCCCCCCCCC1=C(O)C(=O)C=C(O)C1=O` [Embelin] + COc1cccc2cc(-c3nc([C@H]4CC[C@H](C(=O)O)CC4)n4ncnc(N)c34)[nH]c12 [OSI-027] (partner 0.5 µM), 0.638.
The compound `CCCCCCCCCCCC1=C(O)C(=O)C=C(O)C1=O` [Embelin] + Nc1nc2[nH]cc(CCc3ccc(C(=O)N[C@@H](CCC(=O)O)C(=O)O)cc3)c2c(=O)[nH]1 [Pemetrexed] (partner 0.2 µM) returned a relative viability of 0.166.

Still in this assay, the particulars now being: first compound 2.53 µM.
As for `CCCCCCCCCCCC1=C(O)C(=O)C=C(O)C1=O` [Embelin] + N=C(N)NC(=N)NCCc1ccccc1 [Phenformin] (partner 250 µM), the relative viability is 0.465.
The compound `CCCCCCCCCCCC1=C(O)C(=O)C=C(O)C1=O` [Embelin] + CCNC(=O)c1noc(-c2cc(C(C)C)c(O)cc2O)c1-c1ccc(CN2CCOCC2)cc1 [Luminespib] (partner 0.01 µM) returned a relative viability of 0.907.
On the same count and under the same terms, then `CCCCCCCCCCCC1=C(O)C(=O)C=C(O)C1=O` [Embelin] + Cc1nc(Nc2ncc(C(=O)Nc3c(C)cccc3Cl)s2)cc(N2CCN(CCO)CC2)n1 [Dasatinib] (partner 0.075 µM), with 0.916; and `CCCCCCCCCCCC1=C(O)C(=O)C=C(O)C1=O` [Embelin] + COc1cccc2cc(-c3nc([C@H]4CC[C@H](C(=O)O)CC4)n4ncnc(N)c34)[nH]c12 [OSI-027] (partner 0.5 µM), with 0.494; and `CCCCCCCCCCCC1=C(O)C(=O)C=C(O)C1=O` [Embelin] + Nc1nc2[nH]cc(CCc3ccc(C(=O)N[C@@H](CCC(=O)O)C(=O)O)cc3)c2c(=O)[nH]1 [Pemetrexed] (partner 0.2 µM), with 0.163.

The same assay, now with this note: first compound 8 µM.
The compound `CCCCCCCCCCCC1=C(O)C(=O)C=C(O)C1=O` [Embelin] + N=C(N)NC(=N)NCCc1ccccc1 [Phenformin] (partner 250 µM) yielded a relative viability of 0.469.
On the same count and under the same terms, with `CCCCCCCCCCCC1=C(O)C(=O)C=C(O)C1=O` [Embelin] + CCNC(=O)c1noc(-c2cc(C(C)C)c(O)cc2O)c1-c1ccc(CN2CCOCC2)cc1 [Luminespib] (partner 0.01 µM) the figure was 0.872.
The compound `CCCCCCCCCCCC1=C(O)C(=O)C=C(O)C1=O` [Embelin] + Cc1nc(Nc2ncc(C(=O)Nc3c(C)cccc3Cl)s2)cc(N2CCN(CCO)CC2)n1 [Dasatinib] (partner 0.075 µM) came in with a relative viability of 0.912.
Still for that read-out and setting: with `CCCCCCCCCCCC1=C(O)C(=O)C=C(O)C1=O` [Embelin] + COc1cccc2cc(-c3nc([C@H]4CC[C@H](C(=O)O)CC4)n4ncnc(N)c34)[nH]c12 [OSI-027] (partner 0.5 µM) the figure was 0.589.
The same measure, in the same setting: with `CCCCCCCCCCCC1=C(O)C(=O)C=C(O)C1=O` [Embelin] + Nc1nc2[nH]cc(CCc3ccc(C(=O)N[C@@H](CCC(=O)O)C(=O)O)cc3)c2c(=O)[nH]1 [Pemetrexed] (partner 0.2 µM) the figure was 0.182.

The test system of another assay is NCI-H1355. The description is as above. The conditions noted are these: first compound 0.08 µM. The method, boiled down:
as §1
`CCCCCCCCCCCC1=C(O)C(=O)C=C(O)C1=O` [Embelin] + N=C(N)NC(=N)NCCc1ccccc1 [Phenformin] (partner 250 µM) displayed a relative viability of 0.482.
Still for that read-out and setting: then `CCCCCCCCCCCC1=C(O)C(=O)C=C(O)C1=O` [Embelin] + CCNC(=O)c1noc(-c2cc(C(C)C)c(O)cc2O)c1-c1ccc(CN2CCOCC2)cc1 [Luminespib] (partner 0.01 µM), with 0.764; and `CCCCCCCCCCCC1=C(O)C(=O)C=C(O)C1=O` [Embelin] + Cc1nc(Nc2ncc(C(=O)Nc3c(C)cccc3Cl)s2)cc(N2CCN(CCO)CC2)n1 [Dasatinib] (partner 0.075 µM), with 0.753; and `CCCCCCCCCCCC1=C(O)C(=O)C=C(O)C1=O` [Embelin] + COc1cccc2cc(-c3nc([C@H]4CC[C@H](C(=O)O)CC4)n4ncnc(N)c34)[nH]c12 [OSI-027] (partner 0.5 µM), with 0.445.
Still for that read-out and setting: then `CCCCCCCCCCCC1=C(O)C(=O)C=C(O)C1=O` [Embelin] + Nc1nc2[nH]cc(CCc3ccc(C(=O)N[C@@H](CCC(=O)O)C(=O)O)cc3)c2c(=O)[nH]1 [Pemetrexed] (partner 0.2 µM), with 1.06.
